Type in all cases: in vivo, human
The subject of experiment [1] is patients suffering from age-related macular degeneration. As to the kind of experiment: Clinical study in senile macular degeneration, Amsler test before and after treatment. Particulars: 1 patient each, tablet 4x/day for 10 days then 2x/day for 30 days; PEA 450 mg and/or spirulina 550 mg per tablet; combination 55% spirulina, 45% PEA. As to the method:
A clinical study was performed to test the synergistic effect of the combination of spirulina (used as dry extract) and PEA in the treatment of senile macular degeneration.
In the study, three patients were treated, comprising both men and women, who were suffering from age-related macular degeneration with the presence of macular drusen, i.e. localised deposits between the retinal pigment epithelium (RPE) and the Bruch membrane, together with geographic atrophy, characterised by RPE cell death and atrophy of the overlying photoreceptors.
All the patients underwent an assessment with the Amsler test, prior to administration of the combination of spirulina and PEA. All three patients presented macular degeneration with distortion (metamorphopsia) or line breaks with an average degree of macular degeneration. […]

The test system of experiment [2] is diabetic patients with altered renal functions. Kind of experiment: Clinical study in altered renal functions in diabetics: creatinine value at beginning and end. As to the method: A clinical study was performed to test the synergistic effect of the combination of spirulina (used as dry extract) and PEA in the treatment of altered renal functions, preferably in diabetics.
In the study, three patients were treated, comprising both men and women who suffered from diabetes. All patients presented altered renal functions, evidenced by the creatinine value, i.e. a creatinine value of over 4 mg/dl (normal values range from 0.7 to 1.3 mg/dl). All the patients were undergoing specific treatments (conventional drugs, such as Decadurabolin, etc.) which, nevertheless, were unable to control the renal dysfunction. The patients' creatinine values were tested, both at the beginning and the end of the clinical study assessment.
In accordance with the present invention, the patients were treated according to the following schema: • the first patient was treated with a tablet comprising 650 mg of PEA, administered four times a day, for a daily total of 2,600 mg of PEA, for a duration of 5 days; next, the same patient was treated with one tablet, comprising 650 mg of PEA, administered twice a day, for a daily total of 1,300 mg of PEA, for a duration of 30 days; • the second patient was treated with a tablet comprising 350 mg of spirulina, administered four times a day, for a daily total of 1,400 mg of spirulina, for a duration of 5 days; next, the same patient was treated with one tablet, comprising 350 mg of spirulina, administered twice a day, for a daily total of 700 mg of spirulina, for a duration of 30 days; • next, the third patient was treated with one tablet, comprising 350 mg of spirulina and 650 mg of PEA, administered four times a day, for a daily total of 1,400 mg of spirulina combined with 2,600 mg of PEA, for a duration of 5 days; next, the same patient was treated with one tablet, comprising 350 mg of spirulina and 650 mg of PEA, administered twice a day, for a daily total of 700 mg of spirulina combined with 1,300 mg of PEA, for a duration of 30 days.

Experiment [3] is described as follows: Fasting glycaemia at beginning and end of the diabetic peripheral neuropathy study. Particulars: 1 patient each, 35 days, on oral hypoglycaemic agents; combination 35% spirulina, 65% PEA.
Description: In the study, three patients were treated, comprising both men and women who suffered from peripheral neuropathy of diabetic origin. All the patients presented the classic symptoms of peripheral neuropathy, i.e. the classic symptoms consisting of paraesthesias, the sensation of ‘walking on cotton wool’, insensitivity to heat and/or cold, etc., and all the patients were undergoing specific treatments to control glycaemic values, in particular oral hypoglycaemic agents. The patients' glycaemia was tested, both at the beginning and the end of the study, to see if taking the product influenced glycaemic control in any way. […]
Experiment [4] has as its system patients with praecordial pain of cardiac origin (angina pectoris). As to the kind of experiment: Clinical study in angina pectoris (chest pain), stress ECG. Particulars: 1 patient each, PEA 300 mg and/or spirulina 700 mg per tablet, combination 70% spirulina, 30% PEA. As to the method: A clinical study was performed to test the synergistic effect of the combination of spirulina (used as dry extract) and PEA in the treatment of angina pectoris (chest pain).
In the study, three patients were treated, comprising both men and women who suffered from praecordial pain of cardiac origin. Upon undergoing a stress ECG, all the patients presented anginal pain during the stress and all were undergoing specific treatments (antihypertensives, beta blockers), which—nevertheless—were unable to fully control the aforesaid symptoms. […]

The subject of experiment [5] is patients with peripheral neuropathy of diabetic origin. As to the kind of experiment: Clinical study in diabetic peripheral neuropathy: nerve conduction by neurological tuning fork, biothesiometer and Achilles reflex. Particulars: 1 patient each, combination 35% spirulina, 65% PEA. As to the method: A clinical study was performed to test the synergistic effect of the combination of spirulina (used as dry extract) and PEA in the treatment of peripheral neuropathy in diabetics.
In the study, three patients were treated, comprising both men and women who suffered from peripheral neuropathy of diabetic origin. All the patients presented the classic symptoms of peripheral neuropathy, i.e. the classic symptoms consisting of paraesthesias, the sensation of ‘walking on cotton wool’, insensitivity to heat and/or cold, etc., and all the patients were undergoing specific treatments to control glycaemic values, in particular oral hypoglycaemic agents. The patients' glycaemia was tested, both at the beginning and the end of the study, to see if taking the product influenced glycaemic control in any way. All the patients had mean fasting glycaemia values of approximately 140 to 165 mg/dl. […]

Experiment [6] has as its system patients suffering from tinnitus. As to the kind of experiment: Clinical study of spirulina, PEA and their combination in the treatment of tinnitus. Particulars: 2 patients per group, oral tablets 2x2/day for 5 days then 1x2/day for 10 days; PEA 350 mg and/or spirulina 650 mg per tablet; combination 65% spirulina, 35% PEA. As to the method: A clinical study was performed to test the synergistic effect of the combination of spirulina (used as dry extract) and palmitoylethanolamide (PEA) in the treatment of tinnitus.
In the study, six patients were treated, comprising both men and women, with a mean age of 49.6 years (person, person, person, person, person, […] women), who had been suffering from tinnitus for at least one year. […]
The improvements regarding the tinnitus were declared by patients, while the improvement in hearing was measured via an audiometric test, carried out before and after administration of the combination in the invention. […]

Turning to `CCCCCCCCCCCCCCCC(=O)NCCO` [PEA, Palmitoylethanolamide], the “Amsler test result after treatment” value in experiment [1] is “slight improvement in the Amsler test result”. In addition, the renal functions result in experiment [2] (1 diabetic patient each, tablet 4x/day for 5 days then 2x/day for 30 days, PEA 650 mg and/or spirulina 350 mg per tablet, combination 35% spirulina, 65% PEA) was “no improvement in renal functions”. The “creatinine value at the end of the treatment” value in experiment [2] (after 35 days, normal values 0.7 to 1.3 mg/dl, combination 35% spirulina, 65% PEA) was determined as 4.4 mg/dL. Besides, the “creatinine value at the beginning of the treatment” value in experiment [2] (baseline of the treated patient, normal values 0.7 to 1.3 mg/dl) came out at 4.3 mg/dL. Further, in experiment [3], the glycaemic profile entry is “without any influence on the glycaemic profile”. Further, the “praecordial pain of cardiac origin when stress was increased during the stress ECG” value in experiment [4] (45 days) is given as “presented praecordial pain of cardiac origin”. Moreover, in experiment [4] (tablet 4x/day for 15 days then 2x/day for 30 days, added to treatments already underway), the “change in condition / capacity to endure the stress ECG versus before administration” value is on record as “no significant changes in condition”. In addition, in experiment [5] (35 days), the “nerve conduction assessed with tuning fork and biothesiometer” value is reported as “slight response to the biothesiometry test”. For the same compound, the “neuropathic symptoms / condition” value in experiment [5] (tablet 4x/day for 5 days then 2x/day for 30 days, PEA 650 mg and/or spirulina 350 mg per tablet) was “slight improvement in the neuropathic symptoms”. Also, the “change in tinnitus perceived (declared by patients)” value in experiment [6] was “neither the two patients treated with PEA, nor the two patients treated with spirulina showed variations in the tinnitus”.

For the origin of these results see patent US20170246227A1, “COMBINATION COMPRISING SPIRULINA AND PALMITOYLETHANOLAMIDE AND/OR SALTS OR PHARMACEUTICALLY ACCEPTABLE DERIVATIVES THEREOF AND THEIR FORMULATIONS, FOR USE IN THE PREVENTION AND/OR IN THE TREATMENT OF HYPERACTIVATED TISSUE CONDITIONS” (priority 2014, published 2017).
